Where a name gives a salt, the structure may show the parent alone.
Each compound was assayed on Pseudomonas fluorescens FW300-N2E2. Conditions: medium / electron acceptor: N2E2 LB/aerobic (2).
Summary of the method: (§1)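 Growth was read as OD600 at 24 h, or at 48 h for R2A strain comparisons, after washed cells at a final OD600 of 0.02 (80 µL) were added to 384-well plates holding serially diluted inorganic ion salts or equimolar nitrilotriacetic acid complexes. Aerobic plates were shaken at 700 rpm at 30 °C, but anaerobic plates were not. IC50 was calculated with the drc R package from at least two biological replicate curves, scaled between water and growth-blocking antibiotic controls and excluding wells with precipitate.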

| Structure (SMILES) | IC50 growth inhibition |
| --- | --- |
| [Cl][Ga]([Cl])[Cl] [Gallium(III)chloride] | < 0.0244 mM |
| NO [Hydroxylamine hydrochloride] | < 0.244 mM |
| O.[Cl-].[Li+] [Lithium chloride hydrate] | 354 mM |
| O.O.O.O.O.O.[Cl-].[Cl-].[Mg+2] [Magnesium chloride hexahydrate] | 360 mM |
| O.O.O.O.[Cl][Mn][Cl] [Manganese (II) chloride tetrahydrate] | 3.91 mM |
| O.O.O.O.O.O.[Cl][Ni][Cl] [Nickel (II) chloride hexahydrate] | > 5 mM |
| O=C(O)CN(CC(=O)O)CC(=O)O [Nitrilotriacetic acid] | 111 mM |
| [Cl][Pd][Cl] [Palladium(II) chloride] | 3.78 mM |
| [Cl-].[K+] [Potassium Chloride] | > 500 mM |
| [K+].[K+].[O]=[Cr](=[O])([O-])[O-] [Potassium chromate] | < 0.244 mM |
| O.O=[Te]([O-])[O-].[K+].[K+] [Potassium tellurite hydrate] | < 0.00244 mM |

Same assay, conditions: medium / electron acceptor: N2E2 LB/nitrate

| Structure (SMILES) | IC50 growth inhibition |
| --- | --- |
| O.O.O.O.O.O.[Al+3].[Cl-].[Cl-].[Cl-] [Aluminum chloride hydrate] | 4.64 mM |
| Cl.N [Ammonium chloride] | 199 mM |
| O.O.[Ba+2].[Cl-].[Cl-] [Barium chloride dihydrate] | 4.99 mM |
| O.O.O.O.O.[Cd+2].[Cd+2].[Cl-].[Cl-].[Cl-].[Cl-] [Cadmium chloride hemipentahydrate] | 0.111 mM |
| [Ca+2].[Cl-].[Cl-] [Calcium chloride dihydrate] | 65.1 mM |
| [Ce+3].[Cl-].[Cl-].[Cl-] [Cerium(III) chloride] | < 0.244 mM |
| [Cl-].[Cs+] [Cesium chloride] | 16.6 mM |
| O.O.O.O.O.O.[Cl][Cr]([Cl])[Cl] [Chromium(III) Chloride Hexahydrate] | > 5 mM |
| O.O.O.O.O.O.[Cl-].[Cl-].[Co+2] [Cobalt chloride hexahydrate] | > 5 mM |
| O=C(O)C[C@H](NCCN[C@@H](CC(=O)O)C(=O)O)C(=O)O [Ethylenediamine-N,N'-disuccinic acid] | 0.488 mM |
| [Cl][Fe]([Cl])[Cl] [Ferric chloride] | > 50 mM |
| [Cl][Ga]([Cl])[Cl] [Gallium(III)chloride] | < 0.0244 mM |
| NO [Hydroxylamine hydrochloride] | 0.694 mM |
| O.[Cl-].[Li+] [Lithium chloride hydrate] | 263 mM |
| O.O.O.O.O.O.[Cl-].[Cl-].[Mg+2] [Magnesium chloride hexahydrate] | 321 mM |
| O.O.O.O.[Cl][Mn][Cl] [Manganese (II) chloride tetrahydrate] | > 5 mM |
| O.O.O.O.O.O.[Cl][Ni][Cl] [Nickel (II) chloride hexahydrate] | > 5 mM |
| O=C(O)CN(CC(=O)O)CC(=O)O [Nitrilotriacetic acid] | 6.75 mM |
| [Cl][Pd][Cl] [Palladium(II) chloride] | > 5 mM |
| [Cl-].[K+] [Potassium Chloride] | 458 mM |
| [K+].[K+].[O]=[Cr](=[O])([O-])[O-] [Potassium chromate] | 31 mM |
| O.O=[Te]([O-])[O-].[K+].[K+] [Potassium tellurite hydrate] | 0.01 mM |

Same assay, conditions: medium / electron acceptor: N2E2 Lactate/aerobic

| Structure (SMILES) | IC50 growth inhibition |
| --- | --- |
| O.O.O.O.O.O.[Al+3].[Cl-].[Cl-].[Cl-] [Aluminum chloride hydrate] | > 5 mM |
| Cl.N [Ammonium chloride] | 355 mM |
| O.O.[Ba+2].[Cl-].[Cl-] [Barium chloride dihydrate] | > 5 mM |
| O.O.O.O.O.[Cd+2].[Cd+2].[Cl-].[Cl-].[Cl-].[Cl-] [Cadmium chloride hemipentahydrate] | < 0.00244 mM |
| [Ca+2].[Cl-].[Cl-] [Calcium chloride dihydrate] | 452 mM |
| [Ce+3].[Cl-].[Cl-].[Cl-] [Cerium(III) chloride] | < 0.244 mM |
| [Cl-].[Cs+] [Cesium chloride] | < 0.244 mM |
| O.O.O.O.O.O.[Cl][Cr]([Cl])[Cl] [Chromium(III) Chloride Hexahydrate] | < 0.00244 mM |
| O.O.O.O.O.O.[Cl-].[Cl-].[Co+2] [Cobalt chloride hexahydrate] | 0.00741 mM |
| O=C(O)C[C@H](NCCN[C@@H](CC(=O)O)C(=O)O)C(=O)O [Ethylenediamine-N,N'-disuccinic acid] | < 0.122 mM |
| [Cl][Fe]([Cl])[Cl] [Ferric chloride] | 41.7 mM |
| [Cl][Ga]([Cl])[Cl] [Gallium(III)chloride] | < 0.0244 mM |
| NO [Hydroxylamine hydrochloride] | < 0.244 mM |
| O.[Cl-].[Li+] [Lithium chloride hydrate] | 321 mM |
| O.O.O.O.O.O.[Cl-].[Cl-].[Mg+2] [Magnesium chloride hexahydrate] | 354 mM |
| O.O.O.O.[Cl][Mn][Cl] [Manganese (II) chloride tetrahydrate] | > 5 mM |
| O.O.O.O.O.O.[Cl][Ni][Cl] [Nickel (II) chloride hexahydrate] | 0.0276 mM |
| O=C(O)CN(CC(=O)O)CC(=O)O [Nitrilotriacetic acid] | < 0.122 mM |
| [Cl][Pd][Cl] [Palladium(II) chloride] | < 0.00244 mM |
| [Cl-].[K+] [Potassium Chloride] | > 500 mM |
| [K+].[K+].[O]=[Cr](=[O])([O-])[O-] [Potassium chromate] | < 0.244 mM |
| O.O=[Te]([O-])[O-].[K+].[K+] [Potassium tellurite hydrate] | < 0.00244 mM |

Same assay, conditions: medium / electron acceptor: N2E2 R2A/aerobic

| Structure (SMILES) | IC50 growth inhibition |
| --- | --- |
| O.O.O.O.O.O.[Al+3].[Cl-].[Cl-].[Cl-] [Aluminum chloride hydrate] | 0.227 mM |
| Cl.N [Ammonium chloride] | > 500 mM |
| O.O.[Ba+2].[Cl-].[Cl-] [Barium chloride dihydrate] | > 5 mM |
| O.O.O.O.O.[Cd+2].[Cd+2].[Cl-].[Cl-].[Cl-].[Cl-] [Cadmium chloride hemipentahydrate] | 0.014 mM |
| [Ca+2].[Cl-].[Cl-] [Calcium chloride dihydrate] | 333 mM |
| [Ce+3].[Cl-].[Cl-].[Cl-] [Cerium(III) chloride] | < 0.244 mM |
| [Cl-].[Cs+] [Cesium chloride] | 1.2 mM |
| O.O.O.O.O.O.[Cl][Cr]([Cl])[Cl] [Chromium(III) Chloride Hexahydrate] | 0.322 mM |
| O.O.O.O.O.O.[Cl-].[Cl-].[Co+2] [Cobalt chloride hexahydrate] | 0.0138 mM |
| O=C(O)C[C@H](NCCN[C@@H](CC(=O)O)C(=O)O)C(=O)O [Ethylenediamine-N,N'-disuccinic acid] | < 0.122 mM |
| [Cl][Fe]([Cl])[Cl] [Ferric chloride] | 0.237 mM |
| [Cl][Ga]([Cl])[Cl] [Gallium(III)chloride] | < 0.0244 mM |
| NO [Hydroxylamine hydrochloride] | < 0.244 mM |
| O.[Cl-].[Li+] [Lithium chloride hydrate] | 176 mM |
| O.O.O.O.O.O.[Cl-].[Cl-].[Mg+2] [Magnesium chloride hexahydrate] | 268 mM |
| O.O.O.O.[Cl][Mn][Cl] [Manganese (II) chloride tetrahydrate] | 1.45 mM |
| O.O.O.O.O.O.[Cl][Ni][Cl] [Nickel (II) chloride hexahydrate] | 0.221 mM |
| O=C(O)CN(CC(=O)O)CC(=O)O [Nitrilotriacetic acid] | 9.21 mM |
| [Cl][Pd][Cl] [Palladium(II) chloride] | 0.249 mM |
| [Cl-].[K+] [Potassium Chloride] | > 500 mM |
| [K+].[K+].[O]=[Cr](=[O])([O-])[O-] [Potassium chromate] | 0.0094 mM |
| O.O=[Te]([O-])[O-].[K+].[K+] [Potassium tellurite hydrate] | < 0.00244 mM |

What follows are compounds tested on Rhodanobacter sp. FW104-10B01. Conditions: medium / electron acceptor: 10B01 R2A/aerobic.
Summary of the method: as §1

| Structure (SMILES) | IC50 growth inhibition |
| --- | --- |
| O.O.O.O.O.O.[Al+3].[Cl-].[Cl-].[Cl-] [Aluminum chloride hydrate] | 3.54 mM |
| Cl.N [Ammonium chloride] | > 500 mM |
| O.O.[Ba+2].[Cl-].[Cl-] [Barium chloride dihydrate] | > 5 mM |
| O.O.O.O.O.[Cd+2].[Cd+2].[Cl-].[Cl-].[Cl-].[Cl-] [Cadmium chloride hemipentahydrate] | 0.11 mM |
| [Ca+2].[Cl-].[Cl-] [Calcium chloride dihydrate] | 354 mM |
| [Ce+3].[Cl-].[Cl-].[Cl-] [Cerium(III) chloride] | < 0.244 mM |
| [Cl-].[Cs+] [Cesium chloride] | 0.452 mM |
| O.O.O.O.O.O.[Cl][Cr]([Cl])[Cl] [Chromium(III) Chloride Hexahydrate] | 2.16 mM |
| O.O.O.O.O.O.[Cl-].[Cl-].[Co+2] [Cobalt chloride hexahydrate] | 0.592 mM |
| O=C(O)C[C@H](NCCN[C@@H](CC(=O)O)C(=O)O)C(=O)O [Ethylenediamine-N,N'-disuccinic acid] | 1.76 mM |
| [Cl][Fe]([Cl])[Cl] [Ferric chloride] | > 50 mM |
| [Cl][Ga]([Cl])[Cl] [Gallium(III)chloride] | 1 mM |
| NO [Hydroxylamine hydrochloride] | 31.9 mM |
| O.[Cl-].[Li+] [Lithium chloride hydrate] | 15.6 mM |
| O.O.O.O.O.O.[Cl-].[Cl-].[Mg+2] [Magnesium chloride hexahydrate] | 218 mM |
| O.O.O.O.[Cl][Mn][Cl] [Manganese (II) chloride tetrahydrate] | > 5 mM |
| O.O.O.O.O.O.[Cl][Ni][Cl] [Nickel (II) chloride hexahydrate] | 1.03 mM |
| O=C(O)CN(CC(=O)O)CC(=O)O [Nitrilotriacetic acid] | > 250 mM |
| [Cl][Pd][Cl] [Palladium(II) chloride] | > 5 mM |
| [Cl-].[K+] [Potassium Chloride] | > 500 mM |
| [K+].[K+].[O]=[Cr](=[O])([O-])[O-] [Potassium chromate] | 0.123 mM |
| O.O=[Te]([O-])[O-].[K+].[K+] [Potassium tellurite hydrate] | 0.01 mM |

Same assay, conditions: medium / electron acceptor: 10B01 R2A/nitrate

| Structure (SMILES) | IC50 growth inhibition |
| --- | --- |
| O.O.O.O.O.O.[Al+3].[Cl-].[Cl-].[Cl-] [Aluminum chloride hydrate] | > 5 mM |
| Cl.N [Ammonium chloride] | > 500 mM |
| O.O.[Ba+2].[Cl-].[Cl-] [Barium chloride dihydrate] | > 5 mM |
| O.O.O.O.O.[Cd+2].[Cd+2].[Cl-].[Cl-].[Cl-].[Cl-] [Cadmium chloride hemipentahydrate] | 0.189 mM |
| [Ca+2].[Cl-].[Cl-] [Calcium chloride dihydrate] | 354 mM |
| [Ce+3].[Cl-].[Cl-].[Cl-] [Cerium(III) chloride] | < 0.244 mM |
| [Cl-].[Cs+] [Cesium chloride] | 3.79 mM |
| O.O.O.O.O.O.[Cl][Cr]([Cl])[Cl] [Chromium(III) Chloride Hexahydrate] | 3.46 mM |
| O.O.O.O.O.O.[Cl-].[Cl-].[Co+2] [Cobalt chloride hexahydrate] | 0.484 mM |
| O=C(O)C[C@H](NCCN[C@@H](CC(=O)O)C(=O)O)C(=O)O [Ethylenediamine-N,N'-disuccinic acid] | 2.76 mM |
| [Cl][Fe]([Cl])[Cl] [Ferric chloride] | > 50 mM |
| [Cl][Ga]([Cl])[Cl] [Gallium(III)chloride] | 1.67 mM |
| NO [Hydroxylamine hydrochloride] | > 500 mM |
| O.[Cl-].[Li+] [Lithium chloride hydrate] | 98.7 mM |
| O.O.O.O.O.O.[Cl-].[Cl-].[Mg+2] [Magnesium chloride hexahydrate] | 141 mM |
| O.O.O.O.[Cl][Mn][Cl] [Manganese (II) chloride tetrahydrate] | > 5 mM |
| O.O.O.O.O.O.[Cl][Ni][Cl] [Nickel (II) chloride hexahydrate] | 1.82 mM |
| O=C(O)CN(CC(=O)O)CC(=O)O [Nitrilotriacetic acid] | > 250 mM |
| [Cl][Pd][Cl] [Palladium(II) chloride] | > 5 mM |
| [Cl-].[K+] [Potassium Chloride] | 381 mM |
| [K+].[K+].[O]=[Cr](=[O])([O-])[O-] [Potassium chromate] | < 0.244 mM |
| O.O=[Te]([O-])[O-].[K+].[K+] [Potassium tellurite hydrate] | 0.01 mM |
